Measured values reported in PubChem BioAssay AID248 (DTP/NCI, 2004).
Toxic doses and inconclusive results are not listed. Rule as the data show it: active = T/C of 150% or more; inactive = T/C below 125%.

Test system: L1210 leukemia ip in BDF1 mice, survival T/C
Assay: NCI In Vivo Anticancer Drug Screen. Data for tumor model L1210 Leukemia (intraperitoneal) in B6D2F1 (BDF1) mice
Conditions: endpoint: mean survival time, higher = longer survival
How it was run: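 In this screen, tumor-bearing mice given compound are compared to those given vehicle, and their survival values are reported as a treated-to-control quotient.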

[1] = dose: 100.0 mg/kg/injection, schedule: Q04DX003 (ip), vehicle: Klucel (hydroxypropylcellulose) (HPC)
[2] = dose: 200.0 mg/kg/injection, schedule: Q04DX003 (ip), vehicle: Klucel (hydroxypropylcellulose) (HPC)
[3] = dose: 400.0 mg/kg/injection, schedule: Q04DX003 (ip), vehicle: Klucel (hydroxypropylcellulose) (HPC)
[4] = dose: 100.0 mg/kg/injection, schedule: Q01DX001 (ip), vehicle: saline
[5] = dose: 200.0 mg/kg/injection, schedule: Q01DX001 (ip), vehicle: saline
[6] = dose: 400.0 mg/kg/injection, schedule: Q01DX001 (ip), vehicle: saline

Measured: T/C

CCN(CC)c1cccc(OC(=O)NC)c1
inactive: dose: 0.75 mg/kg/injection, schedule: Q01DX009 (ip), vehicle: saline with Tween-80 91 % of control | dose: 1.5 mg/kg/injection, schedule: Q01DX009 (ip), vehicle: saline with Tween-80 94 % of control | dose: 3.0 mg/kg/injection, schedule: Q01DX009 (ip), vehicle: saline with Tween-80 94 % of control

CCCCCCCCCCCCCCCC(S(=O)(=O)CC)S(=O)(=O)CC
inactive: [1] 93 % of control | [2] 97 % of control | [3] 87 % of control

O=C(CCCC(=O)N/N=C/c1c(O)ccc2ccccc12)N/N=C/c1c(O)ccc2ccccc12
inactive: dose: 50.0 mg/kg/injection, schedule: Q01DX001 (ip), vehicle: saline 96 % of control | [4] 96 % of control | [5] 96 % of control | [6] 93 % of control

N/C(=N/N=C\c1ccccc1Cl)N/N=C/c1ccccc1Cl
inactive: dose: 15.0 mg/kg/injection, schedule: Q01DX Z (ip), vehicle: carboxymethylcellulose (CMC) 94 % of control | dose: 30.0 mg/kg/injection, schedule: Q01DX Z (ip), vehicle: carboxymethylcellulose (CMC) 100 % of control | dose: 60.0 mg/kg/injection, schedule: Q01DX Z (ip), vehicle: carboxymethylcellulose (CMC) 95 % of control | dose: 120.0 mg/kg/injection, schedule: Q01DX Z (ip), vehicle: carboxymethylcellulose (CMC) 94 % of control | dose: 120.0 mg/kg/injection, schedule: Q01DX Z (oral), vehicle: carboxymethylcellulose (CMC) 100 % of control | dose: 240.0 mg/kg/injection, schedule: Q01DX Z (oral), vehicle: carboxymethylcellulose (CMC) 100 % of control | dose: 960.0 mg/kg/injection, schedule: Q01DX Z (oral), vehicle: carboxymethylcellulose (CMC) 101 % of control

CCCCCCCCC(CCCCCCCC)CCC1CCCCC1
inactive: dose: 100.0 mg/kg/injection, schedule: Q01DX001 (ip), vehicle: saline + alcohol 95 % of control | dose: 200.0 mg/kg/injection, schedule: Q01DX001 (ip), vehicle: saline + alcohol 108 % of control | dose: 400.0 mg/kg/injection, schedule: Q01DX001 (ip), vehicle: saline + alcohol 100 % of control

O=[N+]([O-])c1cc(/C=N\Nc2ccccn2)ccc1Cl
inactive: [1] 112 % of control | [2] 101 % of control | [3] 101 % of control

OCc1cc2ccccc2cc1F
inactive: dose: 50.0 mg/kg/injection, schedule: Q01DX009 (ip), vehicle: saline with Tween-80 105 % of control | dose: 100.0 mg/kg/injection, schedule: Q01DX009 (ip), vehicle: saline with Tween-80 92 % of control | dose: 100.0 mg/kg/injection, schedule: Q04DX003 (ip), vehicle: acetone 100 % of control | dose: 200.0 mg/kg/injection, schedule: Q01DX009 (ip), vehicle: saline with Tween-80 103 % of control | dose: 200.0 mg/kg/injection, schedule: Q04DX003 (ip), vehicle: acetone 87 % of control

COC(=O)CCN(C(=O)c1ccccc1)c1ccccc1C(=O)OC
inactive: dose: 75.0 mg/kg/injection, schedule: Q01DX001 (ip), vehicle: saline 98 % of control | dose: 150.0 mg/kg/injection, schedule: Q01DX001 (ip), vehicle: saline 93 % of control | dose: 300.0 mg/kg/injection, schedule: Q01DX001 (ip), vehicle: saline 86 % of control

NC(=O)c1nc(C(F)(F)F)[nH]c1C(N)=O
inactive: dose: 50.0 mg/kg/injection, schedule: Q01DX009 (ip), vehicle: water 96 % of control | dose: 100.0 mg/kg/injection, schedule: Q01DX009 (ip), vehicle: water 102 % of control | dose: 100.0 mg/kg/injection, schedule: Q04DX003 (ip), vehicle: water 100 % of control | dose: 200.0 mg/kg/injection, schedule: Q01DX009 (ip), vehicle: water 109 % of control | dose: 200.0 mg/kg/injection, schedule: Q04DX003 (ip), vehicle: water 100 % of control | dose: 300.0 mg/kg/injection, schedule: Q01DX009 (ip), vehicle: water 91 % of control

Nc1ccc2c(c1)C(=O)c1c(F)c(F)c(F)c(F)c1-2
inactive: dose: 50.0 mg/kg/injection, schedule: Q01DX001 (ip), vehicle: carboxymethylcellulose (CMC) 97 % of control | dose: 100.0 mg/kg/injection, schedule: Q01DX001 (ip), vehicle: carboxymethylcellulose (CMC) 103 % of control | dose: 200.0 mg/kg/injection, schedule: Q01DX001 (ip), vehicle: carboxymethylcellulose (CMC) 97 % of control | dose: 400.0 mg/kg/injection, schedule: Q01DX001 (ip), vehicle: carboxymethylcellulose (CMC) 100 % of control

CCN=C(N)SCC
inactive: dose: 100.0 mg/kg/injection, schedule: Q04DX002 (ip), vehicle: saline 95 % of control | dose: 200.0 mg/kg/injection, schedule: Q04DX002 (ip), vehicle: saline 95 % of control

O=S(=O)(/C(=C\c1ccccc1)c1ccccc1)C(Cl)c1ccccc1 (stereo unspecified)
inactive: [4] 96 % of control | [5] 110 % of control | [6] 95 % of control
